From US20120282242A1 (priority 2002, published 2012)
Where “and” joins values, the source holds several entries; their conditions need not be identical. Equal values may be shown once. Entries after “also recorded” stand apart in the source; their conditions may differ.

How the values were obtained:
[1] = tested on: eye muscles; details: in vivo
[2] = tested on: glaucoma patients; details: human, in vivo
[3] = tested on: glaucoma patients; parameters: species or system human; details: in vivo
[4] = tested on: eyelid muscles (Riolan's muscle, orbicularis muscle); parameters: species or system human; details: in vivo
[5] = tested on: primary cultures of spinal cord neurons; details: cited from earlier work
[6] = tested on: glaucoma patients; details: human, in vivo; remark: listed apart in the source
[7] = tested on: brain synaptosome preparations; details: cited from earlier work

In the case of `NCC1(CC(=O)O)CCCCC1` [Gabapentin], the therapeutic effect [1] is reported as “achieved therapeutic effect”.

In the case of `COc1cccc2c1C(=O)c1c(O)c3c(c(O)c1C2=O)C[C@@](O)(C(=O)CO)C[C@@H]3O[C@H]1C[C@H](N)[C@H](O)[C@H](C)O1` [doxorubicin], the “effect on eye muscles” value [1] is reported as “reduce the strength of eye muscles” and the “reducing and modulating muscle volume and muscle contraction” value [1] is reported as “have proven to be effective”.

With `CCN(CC)CC(=O)Nc1c(C)cccc1C` [lidocaine, Diethylaminoacet-2,6-xylidide] the “modulation of muscle action” value ([1]; iv) was “promotes the desired effect, but the effect is short lived”.

For `COc1ccc(CCN(C)CCCC(C#N)(c2ccc(OC)c(OC)c2)C(C)C)cc1OC` (stereo not drawn) [verapamil], the therapeutic effect [1] was “causes desired therapeutic effect”.

For botulinum toxin, the “12 week period average reduction of baseline eye pressure” value [2] was 16%, the “% IOP reduction” value [2] was 16.6% and 11.5% and the “% reduction IOP” value [2] was 12.5% and 10% and 7%. The “IOP post Rx during first 3 Rx” value [2] was 26 and 24 and 23, the IOP reduction [2] was 10.5% and 14% and the “reduction of IOP in the treated eye” value [2] was “no reduction of IOP”. For the same molecule, the “disturbance of lid function / subjective complaints” value [3] was “did not lead to any apparent disturbance of lid function”, the “baseline eye pressure after injection” value [4] was “A reduction of baseline eye pressure was also noted” and the “decrease in eye pressure per spike per blink” value [4] was “more than 5 mm Hg”. The “lower increase in eye pressure during forceful squeezing of the eyelids compared with control” value [4] was roughly 50%, the “reduction in eye pressure after forceful closure of the eyes” value [4] was roughly 35% and the “spike in pressure during blinking measured by LMD” value [4] was 25 mm Hg and 20 mm Hg. The “evoked release of glutamate” value [5] was “inhibits the evoked release of glutamate”, the “Outcome: VF progression” value [6] was “no VF progression; also recorded: minimal VF progression” and the “Outcome: progression of diabetic retinopathy” value [6] was “No progression of diabetic retinopathy”. For the same molecule, the “release of acetylcholine and glutamate” value [7] was “inhibits the release of both neurotransmitters”.
